What all share (test): Post-emergence herbicidal activity test (stem and leaf spray, pot culture)
Common to all, as to format: in vivo
Common to all, as to settings: 3 weeks after spraying

Assay [1] concerns Trifoliumre pensL. As for the experimental part: (1) Post-Emergence Stem and Leaf Spray Treatment: The weeds were cultivated in a 180 mm×140 mm plastic nutrient pot by a pot-culture method, placed in an enamel tray, and the plastic nutrient pots were filled with surface soil (⅘ of a depth) collected from a farmland and air-dried and sieved, and a soil humidity was controlled at 20% in the initial stage. Weed seeds with plump and uniform grains were selected, soaked in warm water at 25° C. for 6 h, and germinated in a biochemical incubator (dark) at 28° C. The freshly exposed weed seeds were evenly placed on the soil surface, and then covered with 0.5 cm to 1 cm of soil according to the size of the seeds. The weeds are cultivated in a controlled sunlight greenhouse at 20° C. to 30° C., under natural light, and a relative humidity of 57% to 72%. The soil was loam, including 1.63% of organic matters, with a pH value of 7, 84.3 mg/kg of alkaline nitrogen, 38.5 mg/kg of available phosphorus, and 82.1 mg/kg of available potassium. Each treatment was repeated 2 times, each treatment included 12 pots, and 20 weed seeds were sown in each pot. Pesticide was applied in the test for 1 time in total. When the weeds grew to 1.5- to 2-leaf stage, thinning was conducted, with 10 weeds in each pot, and 30 weeds were kept in each treatment. The cultivated weeds were placed on trays with an area of 0.1 m^2, and stems and leaves were sprayed with a sprayer. After applying a pesticide, the pesticide applied weeds were moved into a greenhouse for routine cultivation. 2 weeks after sowing, the test plants were treated at the 2- to 3-leaf stage: the compounds of the present disclosure for testing were dissolved in acetone separately, and added with Tween 80, an emulsifiable oil of 1.5 liters/ha methyl oleate was added as a synergist, and an obtained mixture was diluted with certain water to a certain concentration solution. The solution was sprayed onto the plants using a spray tower. After spraying, the weeds were cultivated in the greenhouse for 3 weeks, and the experimental effects on the weeds were counted. The effective concentrations of the compounds were 10 g/mu, 5 g/mu, and 2.5 g/mu, the experiment was repeated three times, and an average result was taken.

The test system of assay [2] is Portulaca oleracea. Here is the method:
(§1) The weeds were cultivated in a 180 mm×140 mm plastic nutrient pot by a pot-culture method, placed in an enamel tray, and the plastic nutrient pots were filled with surface soil (⅘ of a depth) collected from a farmland and air-dried and sieved, and a soil humidity was controlled at 20% in the initial stage. Weed seeds with plump and uniform grains were selected, soaked in warm water at 25° C. for 6 h, and germinated in a biochemical incubator (dark) at 28° C. The freshly exposed weed seeds were evenly placed on the soil surface, and then covered with 0.5 cm to 1 cm of soil according to the size of the seeds. The weeds are cultivated in a controlled sunlight greenhouse at 20° C. to 30° C., under natural light, and a relative humidity of 57% to 72%. The soil was loam, including 1.63% of organic matters, with a pH value of 7, 84.3 mg/kg of alkaline nitrogen, 38.5 mg/kg of available phosphorus, and 82.1 mg/kg of available potassium.
(§2) Each treatment was repeated 2 times, each treatment included 12 pots, and 20 weed seeds were sown in each pot. Pesticide was applied in the test for 1 time in total. When the weeds grew to 1.5- to 2-leaf stage, thinning was conducted, with 10 weeds in each pot, and 30 weeds were kept in each treatment.
(§3) The cultivated weeds were placed on trays with an area of 0.1 m^2, and stems and leaves were sprayed with a sprayer. After applying a pesticide, the pesticide applied weeds were moved into a greenhouse for routine cultivation.
(§4) 2 weeks after sowing, the test plants were treated at the 2- to 3-leaf stage: the compounds of the present disclosure for testing were dissolved in acetone separately, and added with Tween 80, an emulsifiable oil of 1.5 liters/ha methyl oleate was added as a synergist, and an obtained mixture was diluted with certain water to a certain concentration solution. The solution was sprayed onto the plants using a spray tower. After spraying, the weeds were cultivated in the greenhouse for 3 weeks, and the experimental effects on the weeds were counted. The effective concentrations of the compounds were 10 g/mu, 5 g/mu, and 2.5 g/mu, the experiment was repeated three times, and an average result was taken.
(§5) The activity level criteria for plant destruction (i.e. growth control rate) are as follows: • Grade 5: the growth control rate is greater than or equal to 85%; • Grade 4: the growth control rate is greater than or equal to 60% and less than 85%; • Grade 3: the growth control rate is greater than or equal to 40% and less than 60%; • Grade 2: the growth control rate is greater than or equal to 20% and less than 40%; • Grade 1: the growth control rate is greater than or equal to 5% and less than 20%; and • Grade 0: the growth control rate is less than 5%.
(§6) The growth control rate is a fresh weight control rate.

Assay [3] deals with Abutilon theophrasti. As for the experimental part: as §1, §2, §3, §4, §5, §6
For assay [4], the system named is Setaria viridis. As for the experimental part:
as §1, §2, §3, §4, §5, §6

Assay [5] concerns Amaranthus retroflexus. As for the experimental part:
as §1, §2, §3, §4, §5, §6

The subject of assay [6] is Echinochloa crusgalli. Here is the method: as §1, §2, §3, §4, §5, §6

Take `O=C1C2=C(CCCC2)C(=O)N1c1cc(OCc2nc(-c3ccc(F)cc3F)no2)c(Cl)cc1F` [Compound A6]: the “Post-emergence herbicidal activity, Trifoliumre pensL. (grade)” value was 4 (Grade 4: the growth control rate is greater than or equal to 60% and less than 85%) in assay [1] (dosage 2.5 g/mu); 5 (Grade 5: the growth control rate is greater than or equal to 85%) in assay [1] (dosage 5 g/mu); 5 (Grade 5: the growth control rate is greater than or equal to 85%) in assay [1] (dosage 10 g/mu). Also, the “Post-emergence herbicidal activity, P. oleracea (grade)” value was 4 (Grade 4: the growth control rate is greater than or equal to 60% and less than 85%) in assay [2] (dosage 2.5 g/mu); 5 (Grade 5: the growth control rate is greater than or equal to 85%) in assay [2] (dosage 5 g/mu); 5 (Grade 5: the growth control rate is greater than or equal to 85%) in assay [2] (dosage 10 g/mu). For the same compound, the “Post-emergence herbicidal activity, A. theophrasti (grade)” value in assay [3] (dosage 2.5 g/mu), in assay [3] (dosage 5 g/mu) and in assay [3] (dosage 10 g/mu) was 5 (Grade 5: the growth control rate is greater than or equal to 85%) throughout. Moreover, the “Post-emergence herbicidal activity, S. viridis (grade)” value is 2 (Grade 2: the growth control rate is greater than or equal to 20% and less than 40%) in assay [4] (dosage 2.5 g/mu); 3 (Grade 3: the growth control rate is greater than or equal to 40% and less than 60%) in assay [4] (dosage 5 g/mu); 4 (Grade 4: the growth control rate is greater than or equal to 60% and less than 85%) in assay [4] (dosage 10 g/mu). Moreover, the “Post-emergence herbicidal activity, A. retroflexus (grade)” value in assay [5] (dosage 2.5 g/mu), in assay [5] (dosage 5 g/mu) and in assay [5] (dosage 10 g/mu) was 5 (Grade 5: the growth control rate is greater than or equal to 85%) in each case. Moreover, the “Post-emergence herbicidal activity, E. crusgalli (grade)” value in assay [6] (dosage 2.5 g/mu) was 1 (Grade 1: the growth control rate is greater than or equal to 5% and less than 20%); in assay [6] (dosage 5 g/mu) it was 2 (Grade 2: the growth control rate is greater than or equal to 20% and less than 40%); in assay [6] (dosage 10 g/mu) it was 3 (Grade 3: the growth control rate is greater than or equal to 40% and less than 60%).
Regarding `O=C1C2=C(CCCC2)C(=O)N1c1cc(OCc2nc(-c3ccc(Cl)cc3F)no2)c(Cl)cc1F` [Compound A7], the “Post-emergence herbicidal activity, Trifoliumre pensL. (grade)” value in assay [1] (dosage 2.5 g/mu) is 4 (Grade 4: the growth control rate is greater than or equal to 60% and less than 85%); in assay [1] (dosage 5 g/mu), 5 (Grade 5: the growth control rate is greater than or equal to 85%); in assay [1] (dosage 10 g/mu) it was 5 (Grade 5: the growth control rate is greater than or equal to 85%). The “Post-emergence herbicidal activity, P. oleracea (grade)” value was 4 (Grade 4: the growth control rate is greater than or equal to 60% and less than 85%) in assay [2] (dosage 2.5 g/mu); 5 (Grade 5: the growth control rate is greater than or equal to 85%) in assay [2] (dosage 5 g/mu); 5 (Grade 5: the growth control rate is greater than or equal to 85%) in assay [2] (dosage 10 g/mu). In addition, the “Post-emergence herbicidal activity, A. theophrasti (grade)” value in assay [3] (dosage 2.5 g/mu), in assay [3] (dosage 5 g/mu) and in assay [3] (dosage 10 g/mu) was 5 (Grade 5: the growth control rate is greater than or equal to 85%) throughout. Further, the “Post-emergence herbicidal activity, S. viridis (grade)” value in assay [4] (dosage 2.5 g/mu) was 2 (Grade 2: the growth control rate is greater than or equal to 20% and less than 40%); in assay [4] (dosage 5 g/mu), 3 (Grade 3: the growth control rate is greater than or equal to 40% and less than 60%); in assay [4] (dosage 10 g/mu) it was 4 (Grade 4: the growth control rate is greater than or equal to 60% and less than 85%). For the same compound, the “Post-emergence herbicidal activity, A. retroflexus (grade)” value in assay [5] (dosage 2.5 g/mu), in assay [5] (dosage 5 g/mu) and in assay [5] (dosage 10 g/mu) was 5 (Grade 5: the growth control rate is greater than or equal to 85%) each time. For the same compound, the “Post-emergence herbicidal activity, E. crusgalli (grade)” value was 1 (Grade 1: the growth control rate is greater than or equal to 5% and less than 20%) in assay [6] (dosage 2.5 g/mu); 2 (Grade 2: the growth control rate is greater than or equal to 20% and less than 40%) in assay [6] (dosage 5 g/mu); 3 (Grade 3: the growth control rate is greater than or equal to 40% and less than 60%) in assay [6] (dosage 10 g/mu).

These data come from patent publication US20240300932A1, “N-PHENYLIMINE DERIVATIVE AND PREPARATION METHOD AND USE THEREOF” (Guizhou University, priority 2023, published 2024).
